Experiments:
MV4-11 cell line = assay: Suppressive activity against growth of AML cells (MTT assay); format: cell-based; settings: Homo sapiens, MV4-11 cancer cell line, 48 hrs treatment
Method: The MV4-11 cell line was grown at 37° C. in RPMI medium [Gibco, New York, USA/10% FBS (Gibco), containing 1% penicillin/streptomycin (Gibco)] in a 5% CO2 atmosphere. The grown MV4-11 cell line was withdrawn into PBS, seeded at a density of 3×10^4 cells/well into 96-well plates, and cultured at 37° C. for 24 hrs in a 5% CO2 atmosphere. Various concentrations of the compound (8 points) were prepared by serial dilution in 10 mM DMSO, and the MV4-11 cell line was treated with various concentrations of the compound for 48 hrs. To assess cell viability, 3-(4,5-dimethylthiazol-2-yl)-2,5-diphenyl tetrazolium bromide (MTT) assay (CellTiter 96 Assay, Promega) was performed.
Briefly, the dye was added in an amount of 15 μL to each well and incubated for 2 hrs. Then, each well was incubated with 100 μL of a stop solution for 24 hrs, followed by reading absorbance at 590 nm on EnVision2103. GI50 was calculated using GraphPad Prism 4.0.

FLT1/VEGFR1 = FLT1/VEGFR1 (Homo sapiens, UniProt P17948); assay: Assay for inhibitory activity against kinase; settings: read-out: % Inhibition (1 uM)
PDGFRb = PDGFRb (Homo sapiens, UniProt P09619); assay: Assay for inhibitory activity against kinase; settings: read-out: % Inhibition (1 uM)
Molm-14 = assay: Suppressive activity against growth of AML cells (MTT assay); format: cell-based; settings: Homo sapiens; Molm-14 cancer cell line
MEK 1/2 = settings: cited from earlier work
[1] = test system: serine/threonine kinase MAPK (mitogen-activated protein kinase); settings: cited from earlier work
VEGFR 2 = VEGFR 2 (Homo sapiens, UniProt P35968); settings: cited from earlier work
FLT 3/4 = settings: cited from earlier work

Sequence of FLT1/VEGFR1 (P17948 27-1338): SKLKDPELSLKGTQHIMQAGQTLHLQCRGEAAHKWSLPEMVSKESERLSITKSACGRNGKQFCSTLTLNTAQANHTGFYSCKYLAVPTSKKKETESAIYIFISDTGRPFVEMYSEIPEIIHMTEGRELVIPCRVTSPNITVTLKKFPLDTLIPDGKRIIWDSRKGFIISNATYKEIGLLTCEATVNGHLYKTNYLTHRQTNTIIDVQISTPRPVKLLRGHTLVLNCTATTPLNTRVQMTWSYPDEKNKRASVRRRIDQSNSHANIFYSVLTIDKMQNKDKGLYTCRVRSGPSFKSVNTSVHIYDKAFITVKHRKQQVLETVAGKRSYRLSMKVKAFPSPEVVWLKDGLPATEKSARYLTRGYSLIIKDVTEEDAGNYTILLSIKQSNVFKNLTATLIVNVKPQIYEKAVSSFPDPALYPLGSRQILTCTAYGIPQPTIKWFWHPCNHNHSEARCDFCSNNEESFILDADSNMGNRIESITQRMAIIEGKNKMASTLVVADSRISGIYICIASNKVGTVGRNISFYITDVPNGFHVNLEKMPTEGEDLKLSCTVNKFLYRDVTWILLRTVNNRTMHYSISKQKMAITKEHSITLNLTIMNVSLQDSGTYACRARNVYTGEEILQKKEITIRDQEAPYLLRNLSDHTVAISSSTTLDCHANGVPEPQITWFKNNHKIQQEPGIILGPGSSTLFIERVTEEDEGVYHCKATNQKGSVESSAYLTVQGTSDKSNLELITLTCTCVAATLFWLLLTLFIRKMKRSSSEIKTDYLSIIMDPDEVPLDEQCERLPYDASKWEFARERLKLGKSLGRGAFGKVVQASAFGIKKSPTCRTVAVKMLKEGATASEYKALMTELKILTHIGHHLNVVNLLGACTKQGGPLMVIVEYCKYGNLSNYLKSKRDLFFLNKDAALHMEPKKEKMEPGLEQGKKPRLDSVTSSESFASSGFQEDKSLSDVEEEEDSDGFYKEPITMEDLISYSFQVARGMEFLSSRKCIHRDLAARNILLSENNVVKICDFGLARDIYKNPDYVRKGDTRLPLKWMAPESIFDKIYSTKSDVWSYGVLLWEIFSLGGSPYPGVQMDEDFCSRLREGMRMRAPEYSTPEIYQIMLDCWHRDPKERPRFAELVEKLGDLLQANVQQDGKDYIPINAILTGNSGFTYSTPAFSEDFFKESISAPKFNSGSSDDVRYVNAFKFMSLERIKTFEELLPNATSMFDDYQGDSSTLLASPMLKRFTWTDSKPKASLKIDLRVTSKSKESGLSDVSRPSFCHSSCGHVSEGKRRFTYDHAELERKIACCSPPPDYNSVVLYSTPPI
Sequence of PDGFRb (P09619 33-1106): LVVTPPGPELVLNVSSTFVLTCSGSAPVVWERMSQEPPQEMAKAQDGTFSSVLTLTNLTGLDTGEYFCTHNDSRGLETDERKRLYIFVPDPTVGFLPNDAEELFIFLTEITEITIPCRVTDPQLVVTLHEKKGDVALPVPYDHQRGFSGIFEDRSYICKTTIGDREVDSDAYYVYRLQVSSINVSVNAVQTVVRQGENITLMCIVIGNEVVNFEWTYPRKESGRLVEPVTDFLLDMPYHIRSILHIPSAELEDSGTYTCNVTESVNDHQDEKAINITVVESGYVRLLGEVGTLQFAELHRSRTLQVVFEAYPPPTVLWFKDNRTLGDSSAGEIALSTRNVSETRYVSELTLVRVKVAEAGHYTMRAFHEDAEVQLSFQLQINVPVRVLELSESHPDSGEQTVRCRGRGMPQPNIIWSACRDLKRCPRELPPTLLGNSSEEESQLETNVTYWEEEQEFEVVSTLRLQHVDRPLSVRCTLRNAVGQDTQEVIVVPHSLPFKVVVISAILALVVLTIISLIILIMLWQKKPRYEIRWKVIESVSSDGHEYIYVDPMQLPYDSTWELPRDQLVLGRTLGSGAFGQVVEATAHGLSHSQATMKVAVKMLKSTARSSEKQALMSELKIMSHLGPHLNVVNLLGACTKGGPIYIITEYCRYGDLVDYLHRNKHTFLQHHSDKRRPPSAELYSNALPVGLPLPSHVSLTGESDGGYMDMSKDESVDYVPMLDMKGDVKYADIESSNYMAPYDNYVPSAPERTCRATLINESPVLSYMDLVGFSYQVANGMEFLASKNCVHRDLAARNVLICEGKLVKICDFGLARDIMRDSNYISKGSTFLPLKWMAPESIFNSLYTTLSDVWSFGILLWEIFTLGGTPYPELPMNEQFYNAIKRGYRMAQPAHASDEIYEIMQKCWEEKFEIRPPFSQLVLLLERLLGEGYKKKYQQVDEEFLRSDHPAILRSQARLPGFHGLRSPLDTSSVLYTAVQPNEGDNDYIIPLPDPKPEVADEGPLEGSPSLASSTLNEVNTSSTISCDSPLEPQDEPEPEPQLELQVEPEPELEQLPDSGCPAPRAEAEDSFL
Sequence of VEGFR 2 (P35968 20-1356, species assumed): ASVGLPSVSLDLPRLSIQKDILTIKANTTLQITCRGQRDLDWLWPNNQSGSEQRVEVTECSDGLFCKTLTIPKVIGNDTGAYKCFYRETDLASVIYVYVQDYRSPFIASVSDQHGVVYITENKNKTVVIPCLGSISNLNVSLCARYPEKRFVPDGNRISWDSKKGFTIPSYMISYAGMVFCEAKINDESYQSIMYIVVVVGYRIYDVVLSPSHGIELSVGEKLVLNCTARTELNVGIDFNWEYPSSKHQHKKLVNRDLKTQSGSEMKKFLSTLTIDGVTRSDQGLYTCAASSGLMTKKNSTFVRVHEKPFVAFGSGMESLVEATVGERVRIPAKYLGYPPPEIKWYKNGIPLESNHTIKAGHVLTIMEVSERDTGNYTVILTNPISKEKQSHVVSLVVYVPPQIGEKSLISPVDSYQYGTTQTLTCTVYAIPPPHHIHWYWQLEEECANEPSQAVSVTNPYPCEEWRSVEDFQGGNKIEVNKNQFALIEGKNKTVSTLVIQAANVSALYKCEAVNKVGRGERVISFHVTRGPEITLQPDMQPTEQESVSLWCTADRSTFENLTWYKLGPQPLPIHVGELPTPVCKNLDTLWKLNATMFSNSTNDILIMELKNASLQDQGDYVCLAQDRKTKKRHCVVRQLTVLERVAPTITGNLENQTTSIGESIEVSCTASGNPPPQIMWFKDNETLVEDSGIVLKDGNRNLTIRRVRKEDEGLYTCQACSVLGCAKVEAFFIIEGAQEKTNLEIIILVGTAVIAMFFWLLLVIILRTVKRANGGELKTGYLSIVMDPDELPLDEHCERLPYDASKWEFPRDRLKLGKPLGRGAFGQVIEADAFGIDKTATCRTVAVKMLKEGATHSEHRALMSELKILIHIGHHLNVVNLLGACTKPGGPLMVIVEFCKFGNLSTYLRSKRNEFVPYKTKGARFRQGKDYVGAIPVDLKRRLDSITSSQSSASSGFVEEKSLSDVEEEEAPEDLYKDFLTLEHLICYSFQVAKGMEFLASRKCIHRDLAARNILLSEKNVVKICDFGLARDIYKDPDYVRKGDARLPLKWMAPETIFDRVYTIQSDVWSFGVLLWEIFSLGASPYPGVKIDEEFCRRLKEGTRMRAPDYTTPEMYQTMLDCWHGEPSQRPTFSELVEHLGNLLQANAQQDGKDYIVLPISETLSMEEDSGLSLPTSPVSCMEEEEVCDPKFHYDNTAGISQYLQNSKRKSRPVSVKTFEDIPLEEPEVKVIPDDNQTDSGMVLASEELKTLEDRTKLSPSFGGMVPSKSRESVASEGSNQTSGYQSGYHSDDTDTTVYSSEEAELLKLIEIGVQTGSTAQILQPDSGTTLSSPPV

SMILES | GI50 (MV4-11 cell line) [nM] | inhibition at 1 µM (FLT1/VEGFR1) [%] | inhibition at 1 µM (PDGFRb) [%] | GI50 (Molm-14) [nM] | inhibitory activity against MEK 1/2 (MEK 1/2) | inhibition of MAPK (mode) [1] | inhibitory activity against VEGFR 2 (VEGFR 2) | inhibitory activity against FLT 3/4 (FLT 3/4)
COc1cc(O)c2c(c1)-c1cccc(c1)[C@@H](O)[C@H](O)C(=O)/C=C\C[C@H](C)OC2=O [Cpd. 24] | 30 | 64 | 70 | 90 |  |  |  | 
COc1cc(O)c2c(c1)CCC[C@H](O)[C@H](O)C(=O)/C=C\C[C@H](C)OC2=O [Compound L-783277] |  |  |  |  | potent inhibitory activity | irreversible ATP competitive inhibitor | potent inhibitory activity | potent inhibitory activity

— patent US20140155635A1, “RESORCYLIC ACID LACTONE COMPOUNDS” (KOREA INSTITUTE OF SCIENCE AND TECHNOLOGY, priority 2012, published 2014)
